The nature of series [1]: Transmetalation (dissociation) kinetics of the Mn(II) complexes with Cu2+. The series is classed as physicochemical. The method, then:
There is a wide consensus among the coordination chemistry community that kinetic inertness is more important for the safe use of metal complexes for imaging applications than thermodynamic stability.[8],[49],[50] Thus, we conducted a detailed investigation of the transmetalation kinetics of the Mn-PYAN and Mn-CHXPYAN complexes, by following their exchange reactions with Cu^2+ in the pH range of 2.5–4.5 (eq 3). [drawing 3] 3
All reactions were carried out in the presence of a large excess of Cu^2+ in order to guarantee the pseudo-first-order kinetic conditions. The transmetalation of Mn-PYAN in the pH range ∼2.0–4.5 is very fast, and thus the rates of the reactions were measured using the stopped-flow technique. Conversely, the exchange reactions of the Mn-CHXPYAN complex are slow and could be studied by using conventional methods. The transmetalation reactions of Mn-PYAN and Mn-CHXPYAN were monitored by following the formation of the corresponding Cu(II) complexes at 295 nm.
The kd values increase upon increase in [H^+] and are independent of the concentration of Cu^2+ as it was found for Mn-PCTA, Mn-PC3AM, and Mn-bispidine complexes.[49],[51] […] The increase in the kd values with increasing H^+ concentration can be interpreted in terms of the extremely slow spontaneous (k0, eq 4) and the proton-assisted (k*[Mn(HL), eq 6) dissociation of Mn(II) complexes. The saturation behavior of the plots of kd versus [H^+] (Figure 5) is characteristic for the equilibrium formation and the accumulation of the *[Mn(HL)] intermediate characterized by the *KH protonation constant (eq 5). The analysis of the rate constants obtained for Mn-CHXPYAN indicates a second-order dependence of kd on [H^+], which can be explained by the proton-assisted dissociation of the *[Mn(HL)] intermediate (k^H*[Mn(HL)], eq 7). [drawing 4] 4 [drawing 5] 5 [drawing 6] 6 [drawing 7] 7
In the presence of excess of the exchanging ion, the transmetalation can be treated as a pseudo-first-order process, and the rate of reactions can be expressed with eq 8, where kd is a pseudo-first-order rate constant and [MnL]t is the total concentration of the complex. [drawing 8] 8
Through consideration of all the possible pathways, the rate of the transmetalation of Mn-PYAN and Mn-CHXPYAN with Cu^2+ can be expressed by eq 9 [drawing 9] 9 Considering the total concentration of the Mn(II) complex ([MnL]t = [MnL] + [*Mn(HL)], as well as the equation defining the protonation constant for the formation of the *[Mn(HL)] intermediate (eq 5) and eq 8, the pseudo-first-order rate constant can be expressed as follows [drawing 10] 10 where k1 = k*[Mn(HL)] × *KH and k2 = k^H*[Mn(HL)] × *KH. The rate and protonation constants characterizing the transmetalation of Mn-PYAN and Mn-CHXPYAN with Cu^2+ have been calculated by fitting the kd values presented in Figure 5 to eq 10 and the values obtained are compared with the corresponding values of Mn-DOTA, Mn-DO3A, Mn-PCTA, Mn-PC3AM^H, and Mn-bispidine in Table 3.
Rates of the metal exchange reactions of Mn-PYAN and Mn-CHXPYAN with Cu^2+ were measured by spectrophotometry by following the formation of the related Cu(II) complexes at 295 nm with an Applied Photophysics DX-17MV stopped-flow instrument and PerkinElmer Lambda 365 UV–vis spectrophotometer using 1.0 cm cells, respectively. The concentration of Mn-PYAN and Mn-CHXPYAN was 1.0 × 10^–4 M, whereas the concentration of Cu^2+ was 10 and 20 times higher in order to guarantee pseudo-first-order conditions. The temperature was maintained at 25 °C and the ionic strength of the solutions was kept constant with 0.15 M NaCl. The exchange rates were studied in the pH range of ca. 2.0–4.5. To keep the pH values constant, monochloroacetic acid (pH range 2.0–3.3), 1,4-dimethylpiperazine (pH range 3.3–4.1), and N-methylpiperazine (pH range 4.1–4.5) buffers were used (0.01 M). […]

Series [2] can be described thus: Cyclic voltammetry of the Mn(II) complexes. Format: physicochemical. As to conditions: for peak-to-peak separation (ΔEp): 2 mM complex, pH ∼ 6.5. How it is done: Cyclic voltammetry experiments were performed with Mn-PYAN and Mn-CHXPYAN, using aqueous solutions with a complex concentration of 2 mM, containing 0.15 M NaCl as the supporting electrolyte (pH ∼ 6.5). The cyclic voltammograms obtained (Figure 3) show well-defined anodic and cathodic waves due to the Mn(II)/Mn(III) pair, which are characteristic of reversible or quasi-reversible processes. At the lowest scan rate (20 mV/s), the peak-to-peak separation (ΔEp) is slightly smaller for Mn-CHXPYAN than for Mn-PYAN, with values of 73 and 80 mV, respectively. When increasing the scan rate, ΔEp increases slightly, with values of 85 and 102 mV, respectively, at the highest scan rate (500 mV/s). This situation is characteristic of electrochemically quasi-reversible processes, although for Mn-CHXPYAN, the values of ΔEp are lower and present less variation with the scan rate.
This is likely related to ligand field effects due to the more symmetrical octahedral coordination around the metal ion in Mn-CHXPYAN than in Mn-PYAN, as evidenced by the shape measures mentioned above (Table S1, Supporting Information).[37] Indeed, high-spin Mn(III) complexes often display Jahn–Teller distorted octahedral coordination, while high-spin Mn(II) complexes lack any LFSE.[38],[39] The E1/2 values of 652 and 567 mV vs Ag/AgCl (3 M KCl) correspond to 862 and 777 mV vs NHE for Mn-PYAN and Mn-CHXPYAN, respectively.[40]
Cyclic voltammetry measurements were performed with a three-electrode configuration on an Autolab PGSTAT302 M potentiostat-galvanostat. A glassy-carbon disk (Metrohm 61204600) was used as the working electrode. The surface of this electrode was polished with α-Al2O3 (0.3 μm) and washed with distilled water before every measurement. The reference electrode used was a Ag/AgCl reference electrode filled with 3 M KCl (Metrohm 6.0726.100). A Pt wire was used as the counter electrode. The complex solutions (2 mM) containing […] were deoxygenated by bubbling nitrogen before each measurement.

Where [3] appears, read: scan rate 500 mV/s, 0.15 M NaCl.
Setting [4] is: vs Ag/AgCl (3 M KCl), 0.15 M NaCl.

SMILES strings stand for the structures.

As to `[Mn+2].c1cc2nc(c1)CN[C@@H]1CCCC[C@H]1NCc1cccc(n1)CN[C@@H]1CCCC[C@H]1NC2` [Mn-CHXPYAN], the “acid-catalyzed dissociation rate kd” value in series [1] (pH = 5.5, 25 °C) is given as 7.9 × 10^–7 s^–1. The compound further displayed a t1/2 in series [1] (pH = 5.5, 25 °C) of 240 h. In series [1] (ratio of k1 values), the “k1 lower than that determined for Mn-PYAN” value is listed as 3600 times. For the same compound, the “peak-to-peak separation (ΔEp)” value in series [2] (scan rate 20 mV/s, 0.15 M NaCl) is 73 mV; in series [2] (setting [3]) it was 85 mV. Besides, the “half wave potential (E1/2)” value in series [2] (setting [4]) is 567 mV; in series [2] (vs NHE), 777 mV.
Turning to `[Mn+2].c1cc2nc(c1)CNCCNCc1cccc(n1)CNCCNC2` [Mn-PYAN], the “t1/2 at pH = 7.4” value in series [1] (dissociation half-life of the Mn(II) complex, 0.15 M NaCl, 25 °C) came to 5.85 h. Besides, the “peak-to-peak separation (ΔEp)” value in series [2] (scan rate 20 mV/s, 0.15 M NaCl) was 80 mV; in series [2] (setting [3]), 102 mV. The “half wave potential (E1/2)” value worked out at 652 mV in series [2] (setting [4]) and 862 mV in series [2] (vs NHE).

These data come from PMC11247486, “Improving the In Vivo Stability of [^52Mn]Mn(II) Complexes with 18-Membered Macrocyclic Chelators for PET Imaging” (Journal of Medicinal Chemistry, 2024).
